Values of other authors as cited in article PMC6008465 (British Journal of Cancer, 2018).

Tested on: patients
Set-up: method as in Mekinist (trametinib) tablets package insert, Novartis 2017
Conditions: oral; ref Mekinist (trametinib) tablets package insert, Novartis 2017; cited from earlier work

## CC(=O)Nc1cccc(-n2c(=O)n(C3CC3)c(=O)c3c(Nc4ccc(I)cc4F)n(C)c(=O)c(C)c32)c1 [trametinib]
  Adverse events associated in clinical trials: retinal pigment epithelial detachment, retinal vein occlusion, interstitial lung disease, skin toxicity, and cardiomyopathy
